# Test results published in paper PMC10600247, “Impact of C- and N-terminal protection on the stability, metal chelation and antimicrobial properties of calcitermin” (Scientific Reports, 2023).
# Residues, ends and D or L forms follow the SMILES beside them.
# Experiments:
# C. albicans (ATCC 10231) = assay: In vitro antifungal CFU assay; format: cell-based, Candida albicans; conditions: pH 5.4; for mean CFU number ± S.D.: per 0.1 mL
# Method: (§1) All microbes were grown at 37 °C in Tryptic Soy Broth (TSB; Biolife, Milan, Italy) or Tryptic Soy Agar plates (TSA, Biolife, Milan, Italy). Peptides were tested at a final concentration C = 0.128, 0.064, 0.032 mg/mL, in the presence or absence of ZnCl2 or CuCl2, at a M:L molar ratio 0.9:1. Briefly, all the microbes were expanded in TSB at 37 °C under agitation for 12 h and then sub-cultured by 1:10 dilution in TSB under the same conditions until reaching OD600nm = 0.3–0.4, as measured by spectrophotometric reading using a GENESYS 10S UV–Vis spectrophotometer (Thermo Scientific, Milan, Italy), corresponding to 0.9–1.2 × 10^7 colony forming units (CFU) per mL, 1.5–2 × 10^8 CFU/mL and 2.4–3.2 × 10^8 CFU/mL, for C. albicans, S. aureus and E. coli respectively. The cultures were then centrifuged at 4500 rpm for 10 min in a SL 8 centrifuge (TX-150 Rotor) (Thermo Scientific, Milan, Italy), and the cellular pellets were washed with PBS pH 5.4. Pelletized cultures were then suspended in 10 mL of PBS pH 5.4, then the suspensions were diluted to a final concentration of 10^4 CFU/mL. Aliquots of 100 µl (corresponding to 10^3 CFU) were seeded in each well of a 96-wells plate. 3 µl of TSB at pH 5.4 were added to each well to obtain a final 1.5% TSB concentration in the culture medium. Peptides were serially diluted in PBS pH 5.4 to C = 0.257, 0.128, and 0.064 mg/mL. ZnCl2 and CuCl2 solutions were added where requested to obtain a M:L ratio 0.9:1. 100 µl of the prepared peptides ± ZnCl2/CuCl2 solutions were then added to each well, obtaining the final 0.128, 0.064 and 0.032 mg/mL peptide concentrations in a total 0.2 mL volume. PBS alone and PBS + ZnCl2/CuCl2 solutions were included as controls. The plates were incubated at 37 °C on a platform rocker with slow stirring for 3 and 24 h. At the end of the incubation times, 100 µl aliquots were taken from each sample and diluted in PBS pH 5.4 to be seeded on TSA plates. Specifically, aliquots were diluted 1:10 at 3 h, and 1:200, 1:100,000 and 1:10 at 24 h, for C. albicans, E. coli, and S. aureus respectively. After incubation for 24 h at 37 °C, grown CFUs were enumerated. Samples were assayed in triplicate in two independent experiments. Student’s t-test was used for the evaluation of significance in biological tests; a p value ≤ 0.05 was considered significant.
# E. coli (ATCC 25922) = assay: In vitro anti-E. coli CFU assay; format: cell-based, Escherichia coli; conditions: pH 5.4; for mean CFU number ± S.D.: per 0.1 mL
# Method: as §1
# [1] = peptide 0.032 mg/mL + CuCl2 (0.9:1), 3 h
# [2] = peptide 0.032 mg/mL + CuCl2 (0.9:1), 24 h
# [3] = peptide 0.032 mg/mL + ZnCl2 (0.9:1), 3 h
# [4] = peptide 0.032 mg/mL + ZnCl2 (0.9:1), 24 h
# [5] = peptide 0.064 mg/mL + CuCl2 (0.9:1), 3 h
# [6] = peptide 0.064 mg/mL + CuCl2 (0.9:1), 24 h
# [7] = peptide 0.064 mg/mL + ZnCl2 (0.9:1), 3 h
# [8] = peptide 0.064 mg/mL + ZnCl2 (0.9:1), 24 h
# [9] = peptide 0.128 mg/mL + CuCl2 (0.9:1), 3 h
# [10] = peptide 0.128 mg/mL + CuCl2 (0.9:1), 24 h
# [11] = peptide 0.128 mg/mL + ZnCl2 (0.9:1), 3 h
# [12] = peptide 0.128 mg/mL + ZnCl2 (0.9:1), 24 h
# [13] = peptide alone 0.032 mg/mL, 24 h
# [14] = peptide alone 0.064 mg/mL, 24 h
# [15] = peptide alone 0.128 mg/mL, 24 h
compound,measurement,setting,value
"CC[C@H](C)[C@H](NC(=O)[C@H](C)NC(=O)[C@@H](NC(C)=O)C(C)C)C(=O)N[C@@H](C)C(=O)N[C@@H](CC(C)C)C(=O)N[C@@H](CCCCN)C(=O)N[C@@H](C)C(=O)N[C@@H](C)C(=O)N[C@@H](Cc1c[nH]cn1)C(=O)N[C@@H](Cc1ccc(O)cc1)C(=O)N[C@@H](Cc1c[nH]cn1)C(=O)N[C@H](C(=O)N[C@@H](Cc1c[nH]cn1)C(=O)N[C@@H](CCCCN)C(=O)N[C@@H](CCC(=O)O)C(=O)O)[C@@H](C)O [L1, Ac-VAIALKAAHYHTHKE] (Ac-VAIALKAAHYHTHKE-OH)",CFU decrease/increase with respect to untreated controls,C. albicans (ATCC 10231); [1],-27.3%
same,mean CFU number ± S.D.,C. albicans (ATCC 10231); [1],40 ± 28 CFU
same,mean CFU number ± S.D.,C. albicans (ATCC 10231); [2],"1,908 ± 160 CFU"
same,CFU decrease/increase with respect to untreated controls,C. albicans (ATCC 10231); [3],+16%
same,mean CFU number ± S.D.,C. albicans (ATCC 10231); [3],67 ± 4 CFU
same,CFU decrease/increase with respect to untreated controls,C. albicans (ATCC 10231); [4],-2%
same,mean CFU number ± S.D.,C. albicans (ATCC 10231); [4],"2,230 ± 326 CFU"
same,CFU decrease/increase with respect to untreated controls,C. albicans (ATCC 10231); [5],-27.3%
same,mean CFU number ± S.D.,C. albicans (ATCC 10231); [5],40 ± 24 CFU
same,mean CFU number ± S.D.,C. albicans (ATCC 10231); [6],"1,576 ± 112 CFU"
same,CFU decrease/increase with respect to untreated controls,C. albicans (ATCC 10231); [7],+60%
same,mean CFU number ± S.D.,C. albicans (ATCC 10231); [7],88 ± 7 CFU
same,mean CFU number ± S.D.,C. albicans (ATCC 10231); [8],"1,619 ± 165 CFU"
same,CFU decrease/increase with respect to untreated controls,C. albicans (ATCC 10231); [9],-27.3%
same,mean CFU number ± S.D.,C. albicans (ATCC 10231); [9],40 ± 11 CFU
same,mean CFU number ± S.D.,C. albicans (ATCC 10231); [10],"1,428 ± 24 CFU"
same,CFU decrease/increase with respect to untreated controls,C. albicans (ATCC 10231); [11],+31%
same,mean CFU number ± S.D.,C. albicans (ATCC 10231); [11],72 ± 10 CFU
same,mean CFU number ± S.D.,C. albicans (ATCC 10231); [12],265 ± 108 CFU
same,mean CFU number ± S.D.,"C. albicans (ATCC 10231); peptide alone 0.032 mg/mL, 3 h",40 ± 10 CFU
same,mean CFU number ± S.D.,C. albicans (ATCC 10231); [13],"1,789 ± 225 CFU"
same,CFU decrease/increase with respect to untreated controls,"C. albicans (ATCC 10231); peptide alone 0.064 mg/mL, 3 h",-1.8%
same,mean CFU number ± S.D.,"C. albicans (ATCC 10231); peptide alone 0.064 mg/mL, 3 h",54 ± 6 CFU
same,mean CFU number ± S.D.,C. albicans (ATCC 10231); [14],"1,807 ± 433 CFU"
same,CFU decrease/increase with respect to untreated controls,"C. albicans (ATCC 10231); peptide alone 0.128 mg/mL, 3 h",-51%
same,mean CFU number ± S.D.,"C. albicans (ATCC 10231); peptide alone 0.128 mg/mL, 3 h",27 ± 0.6 CFU
same,mean CFU number ± S.D.,C. albicans (ATCC 10231); [15],"1,666 ± 229 CFU"
same,mean CFU number ± S.D.,E. coli (ATCC 25922); [1],372 ± 16 CFU
same,CFU decrease/increase with respect to untreated controls,E. coli (ATCC 25922); [2],-15%
same,mean CFU number ± S.D.,E. coli (ATCC 25922); [2],147 ± 6 CFU
same,mean CFU number ± S.D.,E. coli (ATCC 25922); [3],343 ± 13 CFU
same,CFU decrease/increase with respect to untreated controls,E. coli (ATCC 25922); [4],-6%
same,mean CFU number ± S.D.,E. coli (ATCC 25922); [4],163 ± 18 CFU
same,mean CFU number ± S.D.,E. coli (ATCC 25922); [5],385 ± 24 CFU
same,mean CFU number ± S.D.,E. coli (ATCC 25922); [6],58 ± 8 CFU
same,mean CFU number ± S.D.,E. coli (ATCC 25922); [7],198 ± 7 CFU
same,CFU decrease/increase with respect to untreated controls,E. coli (ATCC 25922); [8],-13%
same,mean CFU number ± S.D.,E. coli (ATCC 25922); [8],149 ± 7 CFU
same,mean CFU number ± S.D.,E. coli (ATCC 25922); [9],151 ± 30 CFU
same,mean CFU number ± S.D.,E. coli (ATCC 25922); [10],17 ± 18 CFU
same,mean CFU number ± S.D.,E. coli (ATCC 25922); [11],45 ± 18 CFU
same,CFU decrease/increase with respect to untreated controls,E. coli (ATCC 25922); [12],+8%
same,mean CFU number ± S.D.,E. coli (ATCC 25922); [12],187 ± 12 CFU
same,mean CFU number ± S.D.,"E. coli (ATCC 25922); peptide alone 0.032 mg/mL, 3 h",749 ± 47 CFU
same,CFU decrease/increase with respect to untreated controls,E. coli (ATCC 25922); [13],+1%
same,mean CFU number ± S.D.,E. coli (ATCC 25922); [13],174 ± 6 CFU
same,mean CFU number ± S.D.,"E. coli (ATCC 25922); peptide alone 0.064 mg/mL, 3 h",634 ± 10 CFU
same,CFU decrease/increase with respect to untreated controls,E. coli (ATCC 25922); [14],-15%
same,mean CFU number ± S.D.,E. coli (ATCC 25922); [14],146 ± 17 CFU
same,mean CFU number ± S.D.,"E. coli (ATCC 25922); peptide alone 0.128 mg/mL, 3 h",625 ± 76 CFU
same,mean CFU number ± S.D.,E. coli (ATCC 25922); [15],140 ± 11 CFU
